Where “and” joins values, the source holds several entries; their conditions need not be identical. Equal entries are not always repeated. Structures can show the parent of a compound that is named as a salt.
How the values were obtained:
[1] = test system: Staphylococcus aureus MW2 delta-mecA (mecA-); assay: IC50 (growth, competition assay); details: cefoxitin: subinhibitory
Summary of the method: (§1)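 Signals from DsRed (540/590) and GFP (485/520) were scaled on every plate between single-strain control medians, with No Treatment then set to 0.5. The cells were a 1:1 mix of pre-induced fluorescent S. aureus MW2 strains with and without the resistance gene, grown unshaken for 20 h at 37 °C and 90% humidity in LB in 1536-well plates under a subinhibitory drug dose set each day. Each strain's IC50 was defined as the dose halving the No Treatment signal, or the maximal signal.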

[2] = test system: Staphylococcus aureus MW2 (mecA+); assay: IC50 (growth, competition assay); details: cefoxitin: subinhibitory
Summary of the method: as §1

| SMILES | IC50 ([1]; fluorescent label: DsRed) | IC50 ([1]; fluorescent label: GFP) | IC50 ([2]; fluorescent label: DsRed) | IC50 ([2]; fluorescent label: GFP) |
| --- | --- | --- | --- | --- |
| Cc1cc(C(C#N)c2ccc(Cl)cc2)c(Cl)cc1NC(=O)c1cc(I)cc(I)c1O (stereo not given) [FLUKIVER] | < 9.85 µM | < 9.85 µM | < 9.85 µM | < 9.85 µM |
| COc1cccc(C2(O)CCCCC2CN(C)C)c1 (stereo not given) [ULTRAM] | 101 µM | 60.8 µM | 131 µM | 135 µM |
| C=C1c2c(Cl)ccc(O)c2C(=O)C2=C(O)[C@]3(O)C(=O)C(C(N)=O)=C(O)[C@@H](N(C)C)[C@@H]3[C@@H](O)[C@H]12.O=C(O)c1cc(S(=O)(=O)O)ccc1O [MECLAN] | < 9.85 µM | < 9.85 µM | < 9.85 µM | < 9.85 µM |
| CCN(CC)CCOc1ccc(Nc2ncc3cc(-c4c(Cl)cccc4Cl)c(=O)n(C)c3n2)cc1 | 30.6 µM | 36.5 µM | 85.1 µM | 106 µM |
| CC[C@H]1OC(=O)[C@H](C)[C@@H](O[C@H]2C[C@@](C)(OC)[C@@H](O)[C@H](C)O2)[C@H](C)[C@@H](O[C@@H]2O[C@H](C)C[C@H](N(C)C)[C@H]2O)[C@](C)(O)C[C@@H](C)C(=O)[C@H](C)[C@@H](O)[C@]1(C)O [Erythromycin (E-Mycin)] | < 0.498 µM | < 0.498 µM | 1.42 µM | 1.62 µM |
| CC(=O)NC1CCSC1=O (stereo not given) [CITIOLASE] | 12.4 µM | 38.9 µM | 56.8 µM | 10.2 µM |
| CCN(CC)C(=S)SSC(=S)N(CC)CC [ANTABUSE] | 12.3 µM | 11.1 µM | 31.7 µM | 33.4 µM |
| Cc1ccc(C(=O)c2cc(O)c(O)c([N+](=O)[O-])c2)cc1 [Tolcapone] | < 9.85 µM | < 9.85 µM | < 9.85 µM | 14.4 µM |
| Cc1cc2nc3c(=O)[nH]c(=O)nc-3n(C[C@H](O)[C@H](O)[C@H](O)CO)c2cc1C [FLAVAXIN] | > 150 µM | > 150 µM | > 150 µM | > 150 µM |
| CCc1ccc(/C=C2/SC(=S)NC2=O)cc1 | < 9.85 µM | < 9.85 µM | < 9.85 µM | < 9.85 µM |
| COC(=O)Nc1ccc(-c2nc(N3CCOCC3)c3cnn(C4CCN(Cc5cccnc5)CC4)c3n2)cc1 [WYE-687] | 15.1 µM | < 9.85 µM | 49.6 µM | 74.8 µM |
| O=C(Nc1cccc(C(F)(F)F)c1)Nc1cc(S(=O)(=O)NC2CC2)ccc1-c1ccsc1 [AGI-6780] | 18.5 µM | 11.6 µM | 33.7 µM | 36.9 µM |
| Cc1cncc(CN2CCC(=C3c4ccc(Cl)cc4CCc4cccnc43)CC2)c1 [Rupatadine Fumarate] | 26.6 µM | 20.2 µM | 74.3 µM | 112 µM |
| Oc1cc2c(cc1O)CN(C(=S)NCCc1ccc(Cl)cc1)CCC2 [Capsazepine] | 34.5 µM | 36.1 µM | 59.4 µM | 111 µM |
| O=c1c2ccccc2[se]n1-c1ccccc1 [EBSELEN] | < 9.85 µM | < 9.85 µM | < 9.85 µM | < 9.85 µM |
| C[C@@H]1CN(c2c(F)c(F)c3c(=O)c(C(=O)O)cn(C4CC4)c3c2F)C[C@H](C)N1 [ORBAX] | 17.8 µM | < 9.85 µM | < 9.85 µM | 15.1 µM |
| Cc1c(O)c(O)cc2c1CC=C1[C@@]2(C)CC[C@@]2(C)[C@@H]3C[C@](C)(C(=O)O)CC[C@]3(C)CC[C@]12C [DIHYDROCELASTROL] | < 9.85 µM | < 9.85 µM | < 9.85 µM | < 9.85 µM |
| CN1C[C@H](CNC(=O)OCc2ccccc2)C[C@@H]2c3cccc4c3c(cn4C)C[C@H]21 [METERGOLINE] | 16.8 µM | 15.9 µM | 50.7 µM | 53.6 µM |
| C[C@H](CCC(=O)O)[C@H]1CC[C@H]2[C@@H]3[C@H](O)C[C@@H]4C[C@H](O)CC[C@]4(C)[C@H]3CC[C@]12C [Chenodeoxycholic acid] | 14.8 µM | 7.91 µM | 54 µM | 91.4 µM |
| CNC(=O)c1cc(Oc2ccc(NC(=O)Nc3ccc(Cl)c(C(F)(F)F)c3)cc2)ccn1 [Sorafenib] | < 9.85 µM | < 9.85 µM | < 9.85 µM | < 9.85 µM |
| CC1(C)C(=O)N(CCN2CCC(C(=O)c3ccc(F)cc3)CC2)c2ccccc21 | 54.1 µM | 16.1 µM | 38.6 µM | 98.8 µM |
| CC(C)(C)c1cc(C=C(C#N)C#N)cc(C(C)(C)C)c1O [Tyrphostin A9] | 35.4 µM | < 9.85 µM | < 9.85 µM | 26 µM |
| C=C1c2cccc(O)c2C(=O)C2=C(O)[C@]3(O)C(=O)C(C(N)=O)=C(O)[C@@H](N(C)C)[C@@H]3[C@@H](O)[C@H]12 [Methacycline hydrochloride (Physiomycine)] | < 0.498 µM | < 0.498 µM | 0.702 µM | 0.644 µM |

| SMILES | IC50 ([1]; fluorescent label: DsRed) | IC50 ([1]; fluorescent label: GFP) | IC50 ([2]; fluorescent label: DsRed) | IC50 ([2]; fluorescent label: GFP) |
| --- | --- | --- | --- | --- |
| CC(C)(C)c1nc(-c2cccc(NS(=O)(=O)c3c(F)cccc3F)c2F)c(-c2ccnc(N)n2)s1 | < 9.85 µM | < 9.85 µM | 35 µM | 79.2 µM |
| CNc1nc(-c2ccc3c(N)n[nH]c3c2)cc(N2C[C@@H](C(=O)NC3CCCCC3)CC[C@H]2C)n1 | 51.4 µM | 26.4 µM | 111 µM | 111 µM |
| N[C@@H]1CONC1=O [SEROMYCIN] | 98.8 µM | 91.5 µM | > 150 µM | 110 µM |
| C=C1/C(=C\C=C2/CCC[C@]3(C)[C@@H]([C@H](C)CCCC(C)C)CC[C@@H]23)C[C@@H](O)C[C@@H]1O [Alfacalcidol] | > 150 µM | > 150 µM | > 150 µM | > 150 µM |
| C[C@H]1COc2c(C3(N)CC3)c(F)cc3c(=O)c(C(=O)O)cn1c23 [PAZUCROSS] | < 9.85 µM | < 9.85 µM | < 9.85 µM | < 9.85 µM |
| CCn1cc(C(=O)O)c(=O)c2ccc(C)nc21 [Nalidixic acid (NegGram)] | 31.2 µM and 18.4 µM | 17.2 µM and 16.7 µM | 99.9 µM and 57.2 µM | 110 µM and 57.2 µM |
| CCC(=O)O[C@H]1[C@H](O[C@@H]2[C@@H](C)[C@H](O[C@H]3C[C@@](C)(OC)[C@@H](O)[C@H](C)O3)[C@@H](C)C(=O)O[C@H](CC)[C@@](C)(O)[C@H](O)[C@@H](C)C(=O)[C@H](C)C[C@@]2(C)O)O[C@H](C)C[C@@H]1N(C)C [ILOSONE] | < 9.85 µM | < 9.85 µM | < 9.85 µM | 17 µM |
| COc1cccc2c1[C@@H]1CN(CCCCn3c(=O)[nH]c4c(sc5ncc(-c6ccccc6)nc54)c3=O)C[C@@H]1CO2 [Fiduxosin hydrochloride] | 10.5 µM | 12.6 µM | 28.5 µM | 29.8 µM |
| Oc1ccc(/C=C/c2ccc(/C=C/c3ccc(O)cc3)c(Br)c2)cc1 [K114] | < 9.85 µM | < 9.85 µM | < 9.85 µM | < 9.85 µM |
| C[C@H]1COC2=C1C(=O)C(=O)c1c2ccc2c1CCCC2(C)C [CRYPTOTANSHINONE] | 11.3 µM | 10.5 µM | 13 µM | 15.7 µM |
| OCc1ccc(-c2ccc(-c3ccc(CO)s3)o2)s1 | < 9.85 µM | < 9.85 µM | 22.4 µM | 33.5 µM |
| CO/N=C(\C(=O)N[C@@H]1C(=O)N2C(C(=O)O)=C(CSc3nnnn3C)CS[C@H]12)c1csc(N)n1 [CEFMAX] | < 9.85 µM | < 9.85 µM | < 9.85 µM | < 9.85 µM |
| CC1(C)S[C@@H]2[C@H](NC(=O)[C@H](N)c3ccc(O)cc3)C(=O)N2[C@H]1C(=O)O [Amoxicillin sodium (Amox)] | < 9.85 µM | < 9.85 µM | < 9.85 µM | 15.1 µM |
| Cc1onc(-c2ccccc2)c1C(=O)N[C@@H]1C(=O)N2[C@@H]1SC(C)(C)[C@@H]2C(=O)O [BACTOCILL] | < 9.85 µM | < 9.85 µM | < 9.85 µM | < 9.85 µM |
| CC[C@@H](C(=O)[C@@H](C)[C@@H](O)[C@H](C)CCc1ccc(C)c(O)c1C(=O)O)[C@H]1O[C@](CC)([C@H]2CC[C@](O)(CC)[C@H](C)O2)C[C@@H]1C [BOVOTEC] | < 9.85 µM | < 9.85 µM | < 9.85 µM | < 9.85 µM |
| Cc1ccc(-c2cc(C(F)(F)F)nn2-c2ccc(S(N)(=O)=O)cc2)cc1 [Celecoxib] | 8.58 µM and 20.1 µM | 9.91 µM and 18.2 µM | 114 µM and 112 µM | 112 µM and 95.4 µM |
| O=C(O)Cc1cc(I)c(Oc2ccc(O)c(I)c2)c(I)c1 [TRIAC] | 11.1 µM | < 9.85 µM | 12.5 µM | 23 µM |
| CCOc1nc2cccc(C(=O)OCc3oc(=O)oc3C)c2n1Cc1ccc(-c2ccccc2-c2noc(=O)[nH]2)cc1 [Azilsartan Medoxomil (TAK-491)] | 11.9 µM | 10.2 µM | 48.4 µM | 67 µM |
| CCOC(=O)c1ccc(N2NC(=O)C(=Cc3ccc([N+](=O)[O-])o3)C2=O)cc1 [PYR-41] | 24.1 µM | 19 µM | 58.8 µM | 79.3 µM |
| CCCCCCCCCCCCC[N+](C)(C)Cc1ccccc1 [ROCCAL] | < 9.85 µM | < 9.85 µM | < 9.85 µM | < 9.85 µM |
| O=c1cc(O)cc(/C=C/c2ccc(O)c(O)c2)o1 [Hispidin] | 50.9 µM | 59.1 µM | 58.9 µM | 54.8 µM |
| COc1ccc(NC(=O)c2ccc(-c3ccc(-c4noc(C)n4)cc3C)cc2)cc1N1CCN(C)CC1 | < 9.85 µM | 12.2 µM | 30.1 µM | 44.9 µM |

From the supplement of paper PMC7695840
